Values joined by “and” are separate entries in the source; they are usually repeats but may differ in a detail not shown here. Equal values may be shown once. Read-outs that look alike come from different tables or passages of the source.
Columns and labels:
BMX = target: T1, BMX (Homo sapiens, UniProt P51813); test: BMX biochemical activity assay (HTRF, phosphorylation of a biotinylated peptide)
T1 sequence (P51813 1-675): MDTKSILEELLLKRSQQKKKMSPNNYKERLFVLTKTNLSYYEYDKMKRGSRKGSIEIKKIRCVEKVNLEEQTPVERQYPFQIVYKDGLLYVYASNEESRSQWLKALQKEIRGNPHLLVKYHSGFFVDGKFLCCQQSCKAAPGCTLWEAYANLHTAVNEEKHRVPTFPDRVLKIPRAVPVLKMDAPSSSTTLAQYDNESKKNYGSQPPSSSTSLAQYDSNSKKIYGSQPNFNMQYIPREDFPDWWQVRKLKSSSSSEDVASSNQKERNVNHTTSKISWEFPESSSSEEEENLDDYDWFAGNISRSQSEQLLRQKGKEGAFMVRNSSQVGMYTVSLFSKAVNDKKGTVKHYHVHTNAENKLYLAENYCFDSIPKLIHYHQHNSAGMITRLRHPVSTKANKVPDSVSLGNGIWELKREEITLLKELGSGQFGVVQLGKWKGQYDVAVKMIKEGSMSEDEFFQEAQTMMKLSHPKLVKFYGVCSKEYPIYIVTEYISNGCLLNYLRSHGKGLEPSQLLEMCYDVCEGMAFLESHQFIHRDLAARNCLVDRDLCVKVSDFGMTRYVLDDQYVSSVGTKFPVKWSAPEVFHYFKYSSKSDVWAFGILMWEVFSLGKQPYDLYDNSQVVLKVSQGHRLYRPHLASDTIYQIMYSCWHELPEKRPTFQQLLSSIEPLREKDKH

[1] = Dynamic light scattering, colloidal aggregation; type: physicochemical; settings: deionized and filtered water (0.1% DMSO), kinetic from dmso stock, measured at 10 µM, 1 µM and 100 nM, 25 °C, read-out: DLS maximum soluble concentration at which no aggregates are observed
Protocol: In addition, we measured particle sizes by using dynamic light scattering (DLS).
DLS is measured at 10 µM, 1µM and 100 nM. The maximum soluble
concentration – at which no aggregates are observed - is indicated and the colour code indicates
Dynamic Light Scattering:
Dynamic light scattering (Zetasizer Nano S, Malvern, UK) was used to determine compound colloidal aggregation. […] A 10 mM stock solution of
test compounds was prepared in DMSO, following dilution to deionized and filtered water to
obtain an analyte solution of 10 μM (0.1% DMSO). Colloidal aggregation was measured
through sequential dilutions at 10 μM, 1 μM and 0.1 μM.

[2] = target: T2, recombinant human BMX protein (hBMX) (Homo sapiens, UniProt P51813); test: Differential scanning fluorimetry (DSF); type: binding; settings: 100 μM compound
T2 construct: Crystallization, data collection, and structure determination of BMX catalytic domain in; made in house; host or cells: Sf-9 insect cells

His6-hsBMX = target: T3, His6-hsBMX (Homo sapiens, UniProt P51813); test: Surface plasmon resonance (SPR); type: binding; settings: from kinetic constants
T3 construct: Crystallization, data collection, and structure determination of BMX catalytic domain in; made in house; host or cells: Sf-9 insect cells
Source text: response upon compound injection (t=0s), or upon washing (t=220s), on immobilized His6-
hsBMX surfaces. Compound concentrations injected on already saturated surfaces were not
included in the 1:1 Langmuir fitting model. X-axis: time (s); y-axis: response (arbitrary units).
Inset plots [x-axis: compound concentration (M); y-axis: response (arbitrary units)] show the
steady-state affinity (KDss) fit for the interactions wherein equilibrium was reached.
Surface Plasmon Resonance:
The kinetic and affinity parameters of protein-compound interaction were evaluated by SPR.
Experiments were carried out in a Biacore 4000 instrument (Biacore AB, GE Healthcare Life
Sciences, Uppsala, Sweden) at 25 °C. His6-BMX protein was diluted to 10 µg/mL in sodium
acetate pH 5.5, in the presence of 5 µM staurosporine and immobilized onto CM5 (Series S)
sensor chips, using the standard amine coupling procedure. Prior to immobilization, the
carboxymethylated surface of the chip was activated with 400 mM 1-ethyl-3-(3-
dimethylaminopropyl)-carbodiimide and 100 mM N-hydroxysuccinimide for 10 min. HBS-N
(10 mM HEPES pH7.4, 150mM NaCl) was used as the background buffer. Protein was coupled
to the surface after 2 to 10 min injection times, at a flow rate of 10 µL/min, in order to reach
1500 to 3500 response units (RU). The remaining activated carboxymethylated groups were
blocked with a 7 min injection of 1 M ethanolamine pH 8.5. Compounds were pre-diluted in
DMSO to 50x the desired highest tested concentration and diluted afterwards in running buffer
(20 mM HEPES pH 7.4, 150 mM NaCl, 1 mM DTT, 0.1 mM EGTA, 0.05 % (v/v) TWEEN-
20, 5 mM MgCl2) in order to reach 2% of DMSO concentration. A DMSO solvent correction
(1% - 3%) was performed to account for variations in bulk signal and to achieve high-quality
data. Each compound was injected over immobilized His6-BMX for 220 s (30 µL min-1;
association phase) followed by 600 to 2000 s of buffer flow (dissociation phase) at a maximum
five times in 2-fold dilution series. All sensorgrams were processed by first subtracting the
binding response recorded from the control surface (reference spot), followed by subtracting
the buffer blank injection from the reaction spot. All datasets were fit to a simple 1:1 Langmuir
interaction model with the provided Biacore 4000 Evaluation software, to determine kinetic rate constants (kon, koff) or steady-state affinity (KDss).

[3] = target: NanoLuc®-BMX fusion vector in HEK293 cells (Homo sapiens, UniProt P51813); test: NanoBRET TE intracellular kinase assay; type: cell-based; settings: HEK293 transiently transfected with BMX; 1 h; duplicate, mean ± S.D.; read-out: intracellular target engagement IC50
Protocol: Target Engagement Intracellular Kinase Assay:
In-cell target engagement was performed at the Reaction Biology Corporation (USA) using the NanoBRETTM technology. Very briefly, HEK296 cells, purchased from ATCC, were
with the reference compound Dasatinib, for 1 hour of incubation. Compounds were diluted 10 times with 3-fold dilution, starting at 1 µM. Curve fits were performed only when % NanoBret
determined using the GraphPad Prism 8 (USA).

[4] = target: T4, wild-type BMX in PC3 cells (Homo sapiens, UniProt P51813); test: BMX degradation assay in PC3 cells (Western blot); type: cell-based; settings: 10 μM; 24 h and 72 h; band intensity normalized to α-Tubulin
T4 construct: endogenous in cells; host or cells: PC3 prostate cancer cells (wild-type, untransfected)
Protocol: The cell proliferation depends on BMX kinase activity that was used to monitor the cellular activity of the compounds (IC50). […].  Fig. 5 (a) Intracellular target engagement in HEK293 cells transiently transfected with BMX expressing NanoLuc®-BMX fusion vector with Promega's NanoBRET™ TE Intracellular Kinase Assay. […] Band intensity was measured using ImageJ and normalized with α-Tubulin band intensity. […] Data are mean ± standard deviation obtained from at least three independent measurements (n = 3). See ESI ^† for additional data and analysis. […] | page 12: […]
degradation assay. Protein band intensity normalized with α-Tubulin band intensity and quantified using ImageJ. Data was obtained from at least three independent measurements […]
concentration against PC3 cells, plated on 6-well plates, a day after attachment. DMSO was used as a control vehicle. At 24 h and 72 h of incubation, cells were washed in 1X PBS and lysed in 100 µL RIPA Buffer (in house) supplemented with EDTA-free Protease Inhibitor Cocktail (Merk) and DNase I (Merk). The lysis procedure was performed by re-suspending cells continuously, followed by a incubation of 30 min on ice. BMX antibody (Abcam) and tubulin antibody (Cell signaling Technology) were used in the Western blot. Band intensity […]

LNCaP cells = test: LNCaP cell growth assay (CellTiter-Glo, 96 h); type: cell-based; settings: Homo sapiens, read-out: GI50 LNCaP
Protocol: (§1) GI50 values are reported in μM and are the mean of three individual experiments performed in triplicate. N.d., non-determined, no growth inhibition observed within the concentrations tested.
(§2) Cellular activity Assay: LNCaP and PC-3 Cell Growth Assay
(§3) Cells were seeded in white, opaque-bottom 96-well plates at 5000 cells/well (LNCaP) or 2000 cells/well (PC-3) in a total volume of 100 µL of culture media.
(§4) fold) in 100 µL media were added to the cells 24 hours later. After 96 hours incubation cellular viability was assessed by CellTiter-Glo® (Promega) according to the manufacturer’s instructions. The values were normalized to vehicle and IC50 was calculated using GraphPad

PC3 cells = test: PC-3 cell growth assay (CellTiter-Glo, 96 h); type: cell-based; settings: Homo sapiens, PC-3, 96 h, read-out: GI50 PC3
Protocol: as §1, §2, §3, §4

LNCaP = test: Multi cell line growth assay (CellTiter-Glo, 72 h); type: cell-based, human; settings: Homo sapiens, LNCaP, Prostate, ND = no growth inhibition observed within the concentrations tested
22 RV1 = test: Multi cell line growth assay (CellTiter-Glo, 72 h); type: cell-based, human; settings: Homo sapiens, 22Rv1, Prostate, ND = no growth inhibition observed
PC3 = test: Multi cell line growth assay (CellTiter-Glo, 72 h); type: cell-based, human; settings: Homo sapiens, PC-3, Prostate, ND = no growth inhibition observed
DU145 = test: Multi cell line growth assay (CellTiter-Glo, 72 h); type: cell-based; settings: Homo sapiens, DU-145, Prostate, ND = no growth inhibition observed
U-87MG = test: Multi cell line growth assay (CellTiter-Glo, 72 h); type: cell-based; settings: Homo sapiens, Brain, ND = no growth inhibition observed
SK-N-MC = test: Multi cell line growth assay (CellTiter-Glo, 72 h); type: cell-based, human; settings: Homo sapiens, SK-N-MC, Brain, ND = no growth inhibition observed
Jurkat = test: Multi cell line growth assay (CellTiter-Glo, 72 h); type: cell-based, human; settings: Homo sapiens, Jurkat, Blood, ND = no growth inhibition observed
Kasumi = test: Multi cell line growth assay (CellTiter-Glo, 72 h); type: cell-based, human; settings: Homo sapiens, Blood, ND = no growth inhibition observed
MDA-MB-231 = test: Multi cell line growth assay (CellTiter-Glo, 72 h); type: cell-based; settings: Homo sapiens, Breast, ND = no growth inhibition observed
CAOV3 = test: Multi cell line growth assay (CellTiter-Glo, 72 h); type: cell-based, human; settings: Homo sapiens, Caov-3, Ovary, ND = no growth inhibition observed
RS4(11) = test: Multi cell line growth assay (CellTiter-Glo, 72 h); type: cell-based, human; settings: Homo sapiens, RS4-11, Lung (so in the source), ND = no growth inhibition observed
DAUDI = test: Multi cell line growth assay (CellTiter-Glo, 72 h); type: cell-based, human; settings: Homo sapiens, Daudi, Lymphoid, ND = no growth inhibition observed
[5] = pH 6.8
Source text: (§5) For assessment of drug permeability, we relied on parallel artificial membrane permeability assay (PAMPA) performed at Pion Inc. with the PAMPA Evolution™ instrument (Table S1, ESI ^†).
(§6) methods (ESOL model1 and Ali et al.2) PAMPA: Pe is effective permeability (x10-6 cm/sec)
(§7) measured directly from assay at pH 6.8 and %R is membrane retention.
(§8) as the average of quadruplicates. Und label refers to compounds with extremely low solubility
(§9) for which UV limits were below the detection limits therefore considered undetected.
(§10) Compounds were labelled as high permeability (green), medium permeability (orange) or low
(§11) Artificial Membrane Permeability (PAMPA):
(§12) The PAMPA Evolution™ instrument was used to determine permeability, at Pion Inc. In
(§13) PAMPA, a sandwich is formed such that each composite well is divided into two chambers,
(§14) measured at pH 6.8 in the donor compartment using low-binding, low UV Prisma buffer. The
(§15) drug-free acceptor compartment was filled with acceptor sink buffer containing a scavenger at
(§16) the start of the test. The proprietary scavenger mimics serum proteins and blood circulation,
(§17) thus creating sink conditions. Aqueous solutions of studied compounds are prepared by diluting
(§18) and thoroughly mixing 3 µL of DMSO stock in 600 µL of Prisma HT buffer. Final
(§19) concentration of organic solvent (DMSO) in aqueous buffer is ≤ 0.5% (v/v). The reference
(§20) solution is identical to the donor at time zero, so that any surface adsorption effects from the
(§21) plastic ware is compensated. The PAMPA sandwich was assembled and allowed to incubate
(§22) for ~15 hours. The solutions in the donor compartment were un-stirred within duration of the
(§23) experiment. Thus, the thickness of the aqueous boundary layer expected to be about 1000 µm.
(§24) The sandwich was then separated, and both the donor and receiver compartments were assayed
(§25) for the amount of drug present by comparison with the UV spectrum obtained from reference

in vitro = settings: PAMPA
Source text: as §5, §6, §7, §8, §9, §10, §11, §12, §13, §14, §15, §16, §17, §18, §19, §20, §21, §22, §23, §24, §25

C=CC(=O)Nc1cc(-n2c(=O)ccc3cnc4ccc(-c5ccc(NS(C)(=O)=O)cc5)cc4c32)ccc1C [BMX-IN-1, reference compound]
IC50 (BMX; Experiment 1 of Fig. S3, control JS9A (in-house BMX-IN-1), read-out: BMX IC50): 0.36 ± 0.024 µM | IC50 (BMX; Experiment 2 of Fig. S3, control commercial BMX-IN-1, read-out: BMX IC50): 0.055 ± 0.035 µM | IC50 (BMX; Experiment 3 of Fig. S3, control commercial BMX-IN-1, read-out: BMX IC50): 0.23 ± 0.0345 µM | IC50 (BMX; Experiment 4 of Fig. S3 = Fig. 1b, duplicate, mean ± S.D., read-out: BMX inhibition IC50): 0.0502 µM and 0.05 µM | solubility [1]: ≥ 10 µM | ΔTm at 100 µM ([2]; versus apo-BMX, read-out: ΔTm): 8.04 ± 0.32 °C | Average Tm of BMX with compound ([2]; apo-BMX Tm 51.8-52.2 °C): 60.17±0.32 °C | Kd (His6-hsBMX): 0.069 µM | IC50 [3]: 0.495 µM | degradation of BMX protein [4]: induce degradation of wild-type BMX in PC3 cells | GI50 (LNCaP cells): 1.7 µM | GI50 (PC3 cells): 11.5 ± 2.2 µM | GI50 (LNCaP): 1.81 ± 0.05 µM | GI50 (22 RV1): 2.07 ± 0.06 µM | GI50 (PC3): 11 ± 1.13 µM | GI50 (DU145): 17.7 µM | GI50 (U-87MG): 5.33 ± 0.19 µM | GI50 (SK-N-MC): 2.36 µM | GI50 (Jurkat): 5.99 µM | GI50 (Kasumi): 3.13 ± 0.06 µM | GI50 (MDA-MB-231): 23.6 ± 0.48 µM | GI50 (CAOV3): 7.68 ± 0.13 µM | GI50 (RS4(11)): 1.18 ± 0.06 µM | GI50 (DAUDI): 1.68 ± 0.07 µM | PAMPA/%R membrane retention [5]: 55±8% | Papp (in vitro; pH 6.8, PAMPA permeability): 8.9 ×10⁻⁶ cm/s | Papp (in vitro; pH 6.8, PAMPA/Pe effective permeability): 8.9 ± 0.8 ×10⁻⁶ cm/s
